In ChEMBL document CHEMBL4311945, “Development of Dual Chitinase Inhibitors as Potential New Treatment for Respiratory System Diseases” (J Med Chem, 2019):
pIC50: −log10 of the molar value.

Columns and labels:
[1] = biological target: Voltage-gated inwardly rectifying potassium channel KCNH2 (Homo sapiens, UniProt Q12809); test: Displacement of Tracer Red from human ERG by fluorescence polarization assay
Chitotriosidase-1 [2] = biological target: Chitotriosidase-1 (Mus musculus, UniProt Q9D7Q1); test: Inhibition of full-length C-terminal his-tagged mouse CHIT1 expressed in CHO-K1 cells assessed as reduction in chitinolytic activity using 4-methylumbelliferyl-beta-D-N,N',N\"-triacetylchitotrioside as substrate after 60 mins by fluorometric assay; type: cell-based
Chain of Chitotriosidase-1 (Mus musculus, UniProt Q9D7Q1) (Q9D7Q1 whole entry): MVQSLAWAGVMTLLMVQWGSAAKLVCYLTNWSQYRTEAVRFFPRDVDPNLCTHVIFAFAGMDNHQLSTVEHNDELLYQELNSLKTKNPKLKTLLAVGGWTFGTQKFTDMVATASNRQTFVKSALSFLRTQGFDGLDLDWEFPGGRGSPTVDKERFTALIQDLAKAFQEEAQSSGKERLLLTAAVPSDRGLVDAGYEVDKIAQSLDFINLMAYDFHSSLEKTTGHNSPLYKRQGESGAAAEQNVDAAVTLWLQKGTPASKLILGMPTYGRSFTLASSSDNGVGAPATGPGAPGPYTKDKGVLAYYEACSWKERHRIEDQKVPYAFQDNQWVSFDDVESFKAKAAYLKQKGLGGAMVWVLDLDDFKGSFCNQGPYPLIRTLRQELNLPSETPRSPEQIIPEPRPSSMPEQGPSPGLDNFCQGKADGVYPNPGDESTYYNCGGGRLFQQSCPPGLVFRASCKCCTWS

[3] = biological target: Acidic mammalian chitinase (Mus musculus, UniProt Q91XA9); test: Inhibition of full-length C-terminal his-tagged mouse acidic mammalian chitinase expressed in CHO-K1 cells assessed as reduction in chitinolytic activity using 4-methylumbelliferyl-beta-D-N,N'-diacetylchitobioside hydrate as substrate after 60 mins by fluorometric assay
Chain of Acidic mammalian chitinase (Mus musculus, UniProt Q91XA9) (Q91XA9 whole entry): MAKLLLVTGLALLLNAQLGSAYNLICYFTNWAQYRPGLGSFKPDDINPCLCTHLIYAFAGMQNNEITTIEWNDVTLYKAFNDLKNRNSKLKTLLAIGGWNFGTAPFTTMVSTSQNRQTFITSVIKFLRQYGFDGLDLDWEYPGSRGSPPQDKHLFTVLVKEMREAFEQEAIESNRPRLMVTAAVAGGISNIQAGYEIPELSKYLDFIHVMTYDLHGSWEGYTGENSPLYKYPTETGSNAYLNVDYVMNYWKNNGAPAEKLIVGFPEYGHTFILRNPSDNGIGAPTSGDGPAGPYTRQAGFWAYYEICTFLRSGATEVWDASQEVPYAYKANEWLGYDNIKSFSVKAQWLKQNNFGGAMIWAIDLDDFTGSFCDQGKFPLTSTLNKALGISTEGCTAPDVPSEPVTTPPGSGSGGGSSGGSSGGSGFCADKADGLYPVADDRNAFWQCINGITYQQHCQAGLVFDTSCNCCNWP

Chitotriosidase-1 [4] = biological target: Chitotriosidase-1 (Homo sapiens, UniProt Q13231); test: Inhibition of full-length C-terminal his-tagged human CHIT1 expressed in CHOK1 cells assessed as reduction in chitinolytic activity using 4-methylumbelliferyl-beta-D-N,N',N\"-triacetylchitotrioside as substrate after 60 mins by fluorometric assay; type: cell-based
Chain of Chitotriosidase-1 (Homo sapiens, UniProt Q13231) (Q13231 whole entry): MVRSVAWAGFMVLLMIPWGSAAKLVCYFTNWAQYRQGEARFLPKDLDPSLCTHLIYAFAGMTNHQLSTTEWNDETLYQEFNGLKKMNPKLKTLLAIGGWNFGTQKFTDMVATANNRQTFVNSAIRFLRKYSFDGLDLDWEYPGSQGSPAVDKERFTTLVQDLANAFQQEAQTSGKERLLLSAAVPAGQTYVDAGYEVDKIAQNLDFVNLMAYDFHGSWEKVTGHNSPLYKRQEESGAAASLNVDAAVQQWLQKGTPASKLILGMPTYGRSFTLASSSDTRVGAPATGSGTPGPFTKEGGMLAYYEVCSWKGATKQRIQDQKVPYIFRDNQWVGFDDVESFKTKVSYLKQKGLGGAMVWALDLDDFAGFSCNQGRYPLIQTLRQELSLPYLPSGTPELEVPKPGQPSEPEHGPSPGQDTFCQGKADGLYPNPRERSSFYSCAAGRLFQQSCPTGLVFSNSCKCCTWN

[5] = biological target: dopamine transporter (DAT) (Homo sapiens, UniProt Q01959); test: Displacement of [3H]BTCP from recombinant human dopamine transporter at 10 uM after 120 mins by scintillation counting analysis relative to control; type: ADME; details: probe [3H]BTCP
Chain of dopamine transporter (DAT) (Q01959 whole entry): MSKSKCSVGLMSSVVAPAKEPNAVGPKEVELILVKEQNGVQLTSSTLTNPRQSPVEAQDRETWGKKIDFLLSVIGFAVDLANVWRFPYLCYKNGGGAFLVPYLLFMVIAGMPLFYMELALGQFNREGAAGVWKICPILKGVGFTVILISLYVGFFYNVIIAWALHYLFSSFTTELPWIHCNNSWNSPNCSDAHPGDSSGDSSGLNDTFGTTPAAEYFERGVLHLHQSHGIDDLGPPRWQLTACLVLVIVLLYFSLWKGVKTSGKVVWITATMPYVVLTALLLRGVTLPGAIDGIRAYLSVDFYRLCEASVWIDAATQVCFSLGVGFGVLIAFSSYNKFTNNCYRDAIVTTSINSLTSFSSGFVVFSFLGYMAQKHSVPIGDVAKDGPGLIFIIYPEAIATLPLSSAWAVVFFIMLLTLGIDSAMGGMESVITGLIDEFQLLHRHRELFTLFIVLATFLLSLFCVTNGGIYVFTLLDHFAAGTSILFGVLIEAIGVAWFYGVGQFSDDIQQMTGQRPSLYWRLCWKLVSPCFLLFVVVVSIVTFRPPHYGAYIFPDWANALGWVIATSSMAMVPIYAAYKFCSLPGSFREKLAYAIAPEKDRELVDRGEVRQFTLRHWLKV

[6] = Lipophilicity, logD of the compound at pH 7.4; type: physicochemical; details: buffer
[7] = biological target: Acidic mammalian chitinase (Homo sapiens, UniProt Q9BZP6); test: Inhibition of full-length C-terminal his-tagged human acidic mammalian chitinase expressed in CHOK1 cells assessed as reduction in chitinolytic activity using 4-methylumbelliferyl-beta-D-N,N-diacetylchitobioside hydrate as substrate after 60 mins by fluorometric assay
Chain of Acidic mammalian chitinase (Homo sapiens, UniProt Q9BZP6) (Q9BZP6 whole entry): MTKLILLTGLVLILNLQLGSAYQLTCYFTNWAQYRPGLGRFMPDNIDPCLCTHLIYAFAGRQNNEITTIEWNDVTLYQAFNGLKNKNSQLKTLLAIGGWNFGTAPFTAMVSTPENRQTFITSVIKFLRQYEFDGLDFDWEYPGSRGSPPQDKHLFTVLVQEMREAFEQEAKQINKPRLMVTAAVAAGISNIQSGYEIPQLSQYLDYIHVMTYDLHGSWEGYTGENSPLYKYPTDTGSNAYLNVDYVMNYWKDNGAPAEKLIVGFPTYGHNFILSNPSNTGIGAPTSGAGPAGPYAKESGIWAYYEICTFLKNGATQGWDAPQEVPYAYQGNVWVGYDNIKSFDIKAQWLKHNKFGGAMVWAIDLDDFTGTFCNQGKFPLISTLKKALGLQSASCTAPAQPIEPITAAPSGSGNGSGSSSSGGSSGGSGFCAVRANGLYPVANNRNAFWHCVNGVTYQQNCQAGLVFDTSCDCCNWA

Chain of Voltage-gated inwardly rectifying potassium channel KCNH2 (Q12809 whole entry): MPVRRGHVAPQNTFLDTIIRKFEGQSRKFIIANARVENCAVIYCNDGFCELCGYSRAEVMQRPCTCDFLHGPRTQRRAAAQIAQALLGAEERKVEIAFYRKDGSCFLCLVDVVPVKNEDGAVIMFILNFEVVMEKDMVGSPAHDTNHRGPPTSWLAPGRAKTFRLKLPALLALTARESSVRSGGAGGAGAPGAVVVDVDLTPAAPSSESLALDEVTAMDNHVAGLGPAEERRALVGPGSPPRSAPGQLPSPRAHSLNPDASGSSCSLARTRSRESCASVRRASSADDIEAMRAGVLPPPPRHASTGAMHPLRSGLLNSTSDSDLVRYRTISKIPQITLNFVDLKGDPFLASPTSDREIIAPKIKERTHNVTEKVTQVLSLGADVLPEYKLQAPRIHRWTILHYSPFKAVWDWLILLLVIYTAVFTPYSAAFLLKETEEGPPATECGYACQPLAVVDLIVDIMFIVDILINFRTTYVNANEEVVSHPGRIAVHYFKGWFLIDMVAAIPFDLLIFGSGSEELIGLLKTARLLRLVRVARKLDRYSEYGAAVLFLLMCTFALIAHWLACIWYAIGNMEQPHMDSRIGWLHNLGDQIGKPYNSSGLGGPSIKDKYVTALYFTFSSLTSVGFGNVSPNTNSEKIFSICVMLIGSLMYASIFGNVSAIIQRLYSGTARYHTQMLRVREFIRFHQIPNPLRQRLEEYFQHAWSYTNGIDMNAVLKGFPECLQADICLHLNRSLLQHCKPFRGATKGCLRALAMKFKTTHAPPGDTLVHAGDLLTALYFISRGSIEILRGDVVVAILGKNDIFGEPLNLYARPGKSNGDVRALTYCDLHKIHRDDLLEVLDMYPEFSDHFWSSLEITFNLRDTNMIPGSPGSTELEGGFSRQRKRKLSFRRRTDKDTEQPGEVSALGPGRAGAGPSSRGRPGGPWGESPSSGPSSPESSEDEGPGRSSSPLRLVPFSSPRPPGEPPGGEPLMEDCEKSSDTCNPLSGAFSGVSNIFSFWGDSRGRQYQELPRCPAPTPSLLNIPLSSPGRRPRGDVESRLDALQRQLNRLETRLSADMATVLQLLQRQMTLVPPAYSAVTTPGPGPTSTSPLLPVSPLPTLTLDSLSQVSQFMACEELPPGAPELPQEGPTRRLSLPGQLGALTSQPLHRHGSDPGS

SMILES	pIC50 (Chitotriosidase-1 [2])	pIC50 [3]	pIC50 (Chitotriosidase-1 [4])	inhibition at 2 h, 10 µM [5] [%]	logD [6]	pIC50 [7]	pIC50 [1]
CC(=O)NCCN(CCc1ccc(Cl)cc1)C1CCN(c2nc(N)n[nH]2)CC1	5.09	7.46	6.31				5.48
CO[C@@H](C)CN(CCc1ccc(Cl)cc1)C1CCN(c2nc(N)n[nH]2)CC1	5.94	7.28	7.36	33			4.75
Nc1n[nH]c(N2CCC(N(CCc3ccc(Cl)cc3)CC3CCCO3)CC2)n1 (centres undefined)	5.97	7.77	7.57	74			4.82
Nc1n[nH]c(N2CCC(N(CCc3ccc(Cl)cc3)CC(=O)O)CC2)n1	4.68	6.40	5.72				5.10
COC(C)(C)CN(CCc1ccc(Cl)cc1)C1CCN(c2nc(N)n[nH]2)CC1	5.44		6.30				5.46
Nc1n[nH]c(N2CCC(N(CCO)CCc3ccc(Cl)cc3)CC2)n1	5.32	6.87	6.42				5.20
Nc1nnc(N2CCC(N3CCC[C@@H]3Cc3ccc(Cl)cc3)CC2)[nH]1	6.37	6.92			1.15		5.40

The remaining compounds from weak to strong by pIC50 (Chitotriosidase-1 [2]), led by results:

pIC50 (Chitotriosidase-1 [2])	pIC50 [3]	pIC50 (Chitotriosidase-1 [4])	inhibition at 2 h, 10 µM [5] [%]	logD [6]	pIC50 [7]	SMILES	pIC50 [1]
4.32	5.94	5.74				CNC(=O)CN(CCc1ccc(Cl)cc1)C1CCN(c2nc(N)n[nH]2)CC1	5.59
4.43	5.59	4.71				Nc1n[nH]c(N2CCC(N3CCC(c4ccc(Cl)cc4)C3)CC2)n1 (centres undefined)	
5.04	6.89	5.84				CNC(=O)NCCN(CCc1ccc(Cl)cc1)C1CCN(c2nc(N)n[nH]2)CC1	5.74
5.77	7.26	7.08				COCCN(CCc1ccc(Cl)cc1)C1CCN(c2nc(N)n[nH]2)CC1	5.55
6.46	7.19	7.33	59	1.6		CO[C@H]1C[C@H](Cc2ccc(Cl)cc2)N(C2CCN(c3nnc(N)[nH]3)CC2)C1	
6.87	7.17			0.68		Nc1nc(N2CCC(N3C[C@H](O)C[C@@H]3Cc3ccc(Cl)cc3)CC2)n[nH]1	4.26
7.06	7.09	7.39		1.41	7.64	Nc1nnc(N2CCC(N3CCCC[C@@H]3Cc3ccc(Cl)cc3)CC2)[nH]1	5.08
